{"source": "paper PMC5218480", "about": "(PLoS ONE, 2017)", "tested_on": "MV-4-11 cells", "test": "Gene expression microarray analysis (Affymetrix PrimeView) and GSEA", "format": "cell-based, human", "parameters": "RFU PODN (11730768_x_at) / Fold change /veh PODN (11730768_x_at) / RFU LINC00158 (11744669_a_at) / Fold change /veh LINC00158 (11744669_a_at) / RFU DUSP10 (11751237_a_at) / Fold change /veh DUSP10 (11751237_a_at) / RFU ID3 (11757404_x_at) / Fold change /veh ID3 (11757404_x_at) / RFU PLEKHG5 (11737974_s_at) / Fold change /veh PLEKHG5 (11737974_s_at) / RFU LRRC4B (11730491_at) / Fold change /veh LRRC4B (11730491_at) / RFU GIMAP4 (11747438_a_at) / Fold change /veh GIMAP4 (11747438_a_at) / RFU KRT8 (11758183_x_at) / Fold change /veh KRT8 (11758183_x_at) / RFU CNN1 (11734310_a_at) / Fold change /veh CNN1 (11734310_a_at) / RFU VPS37D (11726825_at) / Fold change /veh VPS37D (11726825_at) / RFU C10orf10 (11716522_x_at) / Fold change /veh C10orf10 (11716522_x_at) / RFU KIR2DL2 /// KIR2DL4 /// KIR2DL5A /// KIR2DL5B /// KIR2DS1 /// KIR2DS2 /// KIR2DS3 /// KIR2DS4 /// KIR3DL3 /// KIR3DL3 /// KIR3DS1 (11738374_at) / Fold change /veh KIR2DL2 /// KIR2DL4 /// KIR2DL5A /// KIR2DL5B /// KIR2DS1 /// KIR2DS2 /// KIR2DS3 /// KIR2DS4 /// KIR3DL3 /// KIR3DL3 /// KIR3DS1 (11738374_at) / RFU C1QL1 (11718748_at) / Fold change /veh C1QL1 (11718748_at) / RFU TMPRSS4 (11747572_a_at) / Fold change /veh TMPRSS4 (11747572_a_at) / RFU HAMP (11756126_x_at) / Fold change /veh HAMP (11756126_x_at) / RFU RNFT2 (11725882_a_at) / Fold change /veh RNFT2 (11725882_a_at) / RFU NR4A2 (11747474_a_at) / Fold change /veh NR4A2 (11747474_a_at) / RFU ABCC12 (11746883_a_at) / Fold change /veh ABCC12 (11746883_a_at) / RFU TMEM136 (11760407_x_at) / Fold change /veh TMEM136 (11760407_x_at) / RFU CLDN22 /// WWC2 (11732394_at) / Fold change /veh CLDN22 /// WWC2 (11732394_at) / RFU HLA-DPB1 (11760878_x_at) / Fold change /veh HLA-DPB1 (11760878_x_at) / RFU SPINT1 (11716480_a_at) / Fold change /veh SPINT1 (11716480_a_at) / RFU GAP43 (11754022_s_at) / Fold change /veh GAP43 (11754022_s_at) / RFU A4GNT (11735810_at) / Fold change /veh A4GNT (11735810_at) / RFU PRB3 (11715151_x_at) / Fold change /veh PRB3 (11715151_x_at) / RFU TUBB4B (11761932_at) / Fold change /veh TUBB4B (11761932_at) / RFU CAPN14 (11732068_a_at) / Fold change /veh CAPN14 (11732068_a_at) / RFU TMCC2 (11721928_a_at) / Fold change /veh TMCC2 (11721928_a_at) / RFU IRGQ (11745062_a_at) / Fold change /veh IRGQ (11745062_a_at) / RFU FAM174B (11720279_a_at) / Fold change /veh FAM174B (11720279_a_at) / RFU TMPRSS4 (11748680_a_at) / Fold change /veh TMPRSS4 (11748680_a_at) / RFU FAM212B (11763350_a_at) / Fold change /veh FAM212B (11763350_a_at) / RFU PLEKHG5 (11743358_a_at) / Fold change /veh PLEKHG5 (11743358_a_at) / RFU ZSCAN30 (11745921_a_at) / Fold change /veh ZSCAN30 (11745921_a_at) / RFU CMKLR1 (11741424_a_at) / Fold change /veh CMKLR1 (11741424_a_at) / RFU LOC101060620 /// MAPK8IP1 (11723275_at) / Fold change /veh LOC101060620 /// MAPK8IP1 (11723275_at) / RFU SPTSSB (11747773_x_at) / Fold change /veh SPTSSB (11747773_x_at) / RFU PRSS12 (11739890_at) / Fold change /veh PRSS12 (11739890_at) / RFU BIN1 (11741810_x_at) / Fold change /veh BIN1 (11741810_x_at) / RFU WNT11 (11732464_a_at) / Fold change /veh WNT11 (11732464_a_at) / RFU C10orf10 (11716521_a_at) / Fold change /veh C10orf10 (11716521_a_at) / RFU C5orf56 (11738089_at) / Fold change /veh C5orf56 (11738089_at) / RFU CYB561 (11721691_x_at) / Fold change /veh CYB561 (11721691_x_at) / RFU ANKRD19P (11752326_a_at) / Fold change /veh ANKRD19P (11752326_a_at) / RFU OR2T12 /// OR2T33 /// OR2T8 (11738714_s_at) / Fold change /veh OR2T12 /// OR2T33 /// OR2T8 (11738714_s_at) / RFU VCAN (11748164_a_at) / Fold change /veh VCAN (11748164_a_at) / RFU JSRP1 (11732532_at) / Fold change /veh JSRP1 (11732532_at) / RFU KRTAP10-11 (11738290_x_at) / Fold change /veh KRTAP10-11 (11738290_x_at) / RFU MYO3A (11730013_a_at) / Fold change /veh MYO3A (11730013_a_at) / RFU EBF3 (11725865_a_at) / Fold change /veh EBF3 (11725865_a_at) / RFU CAMK2N1 (11719241_x_at) / Fold change /veh CAMK2N1 (11719241_x_at) / RFU C5orf56 (11738088_a_at) / Fold change /veh C5orf56 (11738088_a_at) / RFU OLFML3 (11715873_a_at) / Fold change /veh OLFML3 (11715873_a_at) / RFU LOC100653217 /// NTM (11731650_a_at) / Fold change /veh LOC100653217 /// NTM (11731650_a_at) / RFU MAPK11 (11762145_a_at) / Fold change /veh MAPK11 (11762145_a_at) / RFU FIZ1 (11724087_x_at) / Fold change /veh FIZ1 (11724087_x_at) / RFU OASL (11726364_x_at) / Fold change /veh OASL (11726364_x_at) / RFU SOX15 (11748057_x_at) / Fold change /veh SOX15 (11748057_x_at) / RFU CD79A (11719716_a_at) / Fold change /veh CD79A (11719716_a_at) / RFU HIST1H1D (11736915_at) / Fold change /veh HIST1H1D (11736915_at) / RFU CASKIN2 (11723855_a_at) / Fold change /veh CASKIN2 (11723855_a_at) / RFU LOC730098 (11760151_x_at) / Fold change /veh LOC730098 (11760151_x_at) / RFU OR4N2 (11742367_at) / Fold change /veh OR4N2 (11742367_at) / RFU PRRT2 (11749266_a_at) / Fold change /veh PRRT2 (11749266_a_at) / RFU SNX32 (11753110_a_at) / Fold change /veh SNX32 (11753110_a_at) / RFU CDHR5 (11726645_a_at) / Fold change /veh CDHR5 (11726645_a_at) / RFU RCAN1 (11760418_a_at) / Fold change /veh RCAN1 (11760418_a_at) / RFU FAM167A (11723789_a_at) / Fold change /veh FAM167A (11723789_a_at) / RFU FAM26E (11764081_at) / Fold change /veh FAM26E (11764081_at) / RFU ISYNA1 (11749810_s_at) / Fold change /veh ISYNA1 (11749810_s_at) / RFU ACY1 (11761880_at) / Fold change /veh ACY1 (11761880_at) / RFU 11764098_at / Fold change /veh 11764098_at / RFU SAMD14 (11745864_x_at) / Fold change /veh SAMD14 (11745864_x_at) / RFU NPB (11741838_a_at) / Fold change /veh NPB (11741838_a_at) / RFU TMPRSS6 (11731388_a_at) / Fold change /veh TMPRSS6 (11731388_a_at) / RFU KRTAP10-2 (11738614_at) / Fold change /veh KRTAP10-2 (11738614_at) / RFU ARHGAP8 /// PRR5-ARHGAP8 (11727945_x_at) / Fold change /veh ARHGAP8 /// PRR5-ARHGAP8 (11727945_x_at) / RFU KRTAP5-7 /// NADSYN1 (11734609_at) / Fold change /veh KRTAP5-7 /// NADSYN1 (11734609_at) / RFU RASL12 (11751679_a_at) / Fold change /veh RASL12 (11751679_a_at) / RFU CDKN2B (11736163_a_at) / Fold change /veh CDKN2B (11736163_a_at) / RFU PRF1 (11729649_at) / Fold change /veh PRF1 (11729649_at) / RFU, ZNF638 /// ZNF638-IT1 / Fold change vs veh, ZNF638 /// ZNF638-IT1 / RFU, PANK3 / Fold change vs veh, PANK3 / RFU, SH3YL1 / Fold change vs veh, SH3YL1 / RFU, ZEB2 / Fold change vs veh, ZEB2 / RFU, NRIP1 / Fold change vs veh, NRIP1 / RFU, PTTG1IP / Fold change vs veh, PTTG1IP / RFU, CAPN2 / Fold change vs veh, CAPN2 / RFU, MED14 / Fold change vs veh, MED14 / RFU, SNORA58 / Fold change vs veh, SNORA58 / RFU, C1orf63 / Fold change vs veh, C1orf63 / RFU, LRRFIP1 / Fold change vs veh, LRRFIP1 / RFU, NDUFAF7 / Fold change vs veh, NDUFAF7 / RFU, SLC12A2 / Fold change vs veh, SLC12A2 / RFU, IBTK / Fold change vs veh, IBTK / RFU, ESF1 / Fold change vs veh, ESF1 / Fold change vs veh, TMEM50B / RFU, TAOK1 / Fold change vs veh, TAOK1 / RFU, ACBD3 / Fold change vs veh, ACBD3 / RFU, TMA16 / Fold change vs veh, TMA16 / RFU, RWDD3 / Fold change vs veh, RWDD3 / RFU, BCAT1 / Fold change vs veh, BCAT1 / RFU, EDEM3 / Fold change vs veh, EDEM3 / RFU, TMEM33 / Fold change vs veh, TMEM33 / RFU, WDR75 / Fold change vs veh, WDR75 / RFU, AHCTF1 / Fold change vs veh, AHCTF1 / RFU, TFRC / Fold change vs veh, TFRC / RFU, ZDHHC17 / Fold change vs veh, ZDHHC17 / RFU, NOM1 / Fold change vs veh, NOM1 / RFU, ARL8B / Fold change vs veh, ARL8B / RFU, ZBTB11 / Fold change vs veh, ZBTB11 / RFU, TAMM41 / Fold change vs veh, TAMM41 / RFU, KIAA1704 /// LOC100996395 / Fold change vs veh, KIAA1704 /// LOC100996395 / RFU, ING1 / Fold change vs veh, ING1 / RFU, TRMT61B / Fold change vs veh, TRMT61B / RFU, FUBP3 / Fold change vs veh, FUBP3 / RFU, TP53 / Fold change vs veh, TP53 / RFU, TNKS2 / Fold change vs veh, TNKS2 / RFU, ZFP14 / Fold change vs veh, ZFP14 / RFU, ACTR2 / Fold change vs veh, ACTR2 / RFU, PPP3R1 / Fold change vs veh, PPP3R1 / RFU, PIK3R1 / Fold change vs veh, PIK3R1 / RFU, HNRNPA1 / Fold change vs veh, HNRNPA1 / RFU, RNF170 / Fold change vs veh, RNF170 / RFU, ZNF28 / Fold change vs veh, ZNF28 / RFU, RNGTT / Fold change vs veh, RNGTT / RFU, OGT / Fold change vs veh, OGT / RFU, BRD1 / Fold change vs veh, BRD1 / RFU, MARS / Fold change vs veh, MARS / RFU, ZNF655 / Fold change vs veh, ZNF655 / RFU, FAHD1 / Fold change vs veh, FAHD1 / RFU, BDP1 / Fold change vs veh, BDP1 / RFU, LRRCC1 / Fold change vs veh, LRRCC1 / RFU, ARID1A / Fold change vs veh, ARID1A / RFU, ZNF146 / Fold change vs veh, ZNF146 / RFU, ZNF330 / Fold change vs veh, ZNF330 / RFU, GPN3 / Fold change vs veh, GPN3 / RFU, C9orf123 / Fold change vs veh, C9orf123 / RFU, N4BP2L2 / Fold change vs veh, N4BP2L2 / RFU, ARFIP1 / Fold change vs veh, ARFIP1 / RFU, FAM179B / Fold change vs veh, FAM179B / RFU, BCL10 / Fold change vs veh, BCL10 / RFU, UHRF1BP1L / Fold change vs veh, UHRF1BP1L / RFU, BET1 / Fold change vs veh, BET1 / RFU, CNOT2 / Fold change vs veh, CNOT2 / RFU, ZNF268 / Fold change vs veh, ZNF268 / Fold change vs veh, ZNF507 / RFU, DGCR2 / Fold change vs veh, DGCR2 / RFU, WDSUB1 / Fold change vs veh, WDSUB1 / Fold change vs veh, HSP90B1 /// MIR3652 / RFU, ADSS / Fold change vs veh, ADSS / RFU, GK / Fold change vs veh, GK / RFU, ZNF148 / Fold change vs veh, ZNF148 / RFU, TAF9 / Fold change vs veh, TAF9 / RFU, SLC1A5 / Fold change vs veh, SLC1A5 / RFU, SLMO2 / Fold change vs veh, SLMO2 / RFU, ABCC4 / Fold change vs veh, ABCC4 / RFU, LOC101060439 /// RAP1B / Fold change vs veh, LOC101060439 /// RAP1B / RFU, RFX7 / Fold change vs veh, RFX7 / RFU, GTPBP10 / Fold change vs veh, GTPBP10 / RFU, CNEP1R1 / Fold change vs veh, CNEP1R1 / RFU, BIVM-ERCC5 /// ERCC5 / Fold change vs veh, BIVM-ERCC5 /// ERCC5 / RFU, ILF3 / Fold change vs veh, ILF3 / RFU 11762660_at / Fold change /veh 11762660_at / RFU VCAN (11757783_s_at) / Fold change /veh VCAN (11757783_s_at) / RFU DDX43 (11728927_at) / Fold change /veh DDX43 (11728927_at) / RFU KRT8 (11758188_x_at) / Fold change /veh KRT8 (11758188_x_at) / RFU NKD1 (11759106_at) / Fold change /veh NKD1 (11759106_at) / RFU SRD5A1 (11742802_a_at) / Fold change /veh SRD5A1 (11742802_a_at) / RFU TPSAB1 /// TPSB2 (11721975_s_at) / Fold change /veh TPSAB1 /// TPSB2 (11721975_s_at) / RFU GSTM3 (11746129_a_at) / Fold change /veh GSTM3 (11746129_a_at) / RFU IL23R (11737362_x_at) / Fold change /veh IL23R (11737362_x_at) / RFU TMEM51 (11727254_a_at) / Fold change /veh TMEM51 (11727254_a_at) / RFU PIWIL2 (11732686_x_at) / Fold change /veh PIWIL2 (11732686_x_at) / RFU ORM1 (11744905_x_at) / Fold change /veh ORM1 (11744905_x_at) / RFU CCDC152 (11743942_at) / Fold change /veh CCDC152 (11743942_at) / RFU ECM1 (11717891_a_at) / Fold change /veh ECM1 (11717891_a_at) / RFU IL23R (11748794_a_at) / Fold change /veh IL23R (11748794_a_at) / RFU TNFAIP8L3 (11732012_x_at) / Fold change /veh TNFAIP8L3 (11732012_x_at) / RFU MBOAT4 (11741988_at) / Fold change /veh MBOAT4 (11741988_at) / RFU 11764193_at / Fold change /veh 11764193_at / RFU TMEM53 (11763286_at) / Fold change /veh TMEM53 (11763286_at) / RFU MAGEB2 (11727129_at) / Fold change /veh MAGEB2 (11727129_at) / RFU TMEM200A (11744735_a_at) / Fold change /veh TMEM200A (11744735_a_at) / RFU CCDC152 (11751479_a_at) / Fold change /veh CCDC152 (11751479_a_at) / RFU FAM211A (11726209_a_at) / Fold change /veh FAM211A (11726209_a_at) / RFU RGS16 (11746705_a_at) / Fold change /veh RGS16 (11746705_a_at) / RFU VCAN (11755009_s_at) / Fold change /veh VCAN (11755009_s_at) / RFU RHOB (11743442_s_at) / Fold change /veh RHOB (11743442_s_at) / RFU RGS16 (11720943_a_at) / Fold change /veh RGS16 (11720943_a_at) / RFU RGS16 (11720944_at) / Fold change /veh RGS16 (11720944_at) / RFU, VPS4B / Fold change vs veh, VPS4B / RFU, CREB1 / Fold change vs veh, CREB1 / RFU, DNAJC13 / Fold change vs veh, DNAJC13 / RFU, GNAQ / Fold change vs veh, GNAQ / RFU, CDK5R1 / Fold change vs veh, CDK5R1 / RFU, ZRANB3 / Fold change vs veh, ZRANB3 / RFU, CUL4A / Fold change vs veh, CUL4A / RFU, CCNY / Fold change vs veh, CCNY / RFU, UFL1 / Fold change vs veh, UFL1 / RFU, COG3 / Fold change vs veh, COG3 / RFU, DIAPH2 / Fold change vs veh, DIAPH2 / RFU, SKA2 / Fold change vs veh, SKA2 / RFU, AFF3 / Fold change vs veh, AFF3 / RFU, LMF1 / Fold change vs veh, LMF1 / RFU, IPO11 / Fold change vs veh, IPO11 / RFU, DFFB / Fold change vs veh, DFFB / RFU, FOXP1 / Fold change vs veh, FOXP1 / RFU, CARD8 / Fold change vs veh, CARD8 / RFU, STRN3 / Fold change vs veh, STRN3 / RFU, ADK / Fold change vs veh, ADK / RFU, RASSF2 / Fold change vs veh, RASSF2 / RFU, WIPF1 / Fold change vs veh, WIPF1 / RFU, LARP1B / Fold change vs veh, LARP1B / RFU, RASA1 / Fold change vs veh, RASA1 / RFU, RB1 / Fold change vs veh, RB1 / RFU, PPFIA1 / Fold change vs veh, PPFIA1 / RFU, MAT2A / Fold change vs veh, MAT2A / RFU, CCT5 / Fold change vs veh, CCT5 / RFU, WDR92 / Fold change vs veh, WDR92 / RFU, CUX1 / Fold change vs veh, CUX1 / RFU, TTC7A / Fold change vs veh, TTC7A / RFU, TMEM135 / Fold change vs veh, TMEM135 / RFU, DEPTOR / Fold change vs veh, DEPTOR / RFU, CPM / Fold change vs veh, CPM / RFU, DNAJB6 / Fold change vs veh, DNAJB6 / RFU, CACNA2D3 / Fold change vs veh, CACNA2D3 / RFU, DTX4 / Fold change vs veh, DTX4 / RFU, TFCP2 / Fold change vs veh, TFCP2 / RFU, GMCL1 /// GMCL1P1 / Fold change vs veh, GMCL1 /// GMCL1P1 / RFU, AEBP2 / Fold change vs veh, AEBP2 / RFU, SNHG1 /// SNORD22 /// SNORD25 /// SNORD26 /// SNORD27 /// SNORD28 /// SNORD29 /// SNORD31 / Fold change vs veh, SNHG1 /// SNORD22 /// SNORD25 /// SNORD26 /// SNORD27 /// SNORD28 /// SNORD29 /// SNORD31 / Fold change (Aza/veh), C12orf56 (ProbeSet 11735607_a_at) / Fold change (ACY-1035/veh), C12orf56 (ProbeSet 11735607_a_at) / Fold change (Aza/veh), FGFR1OP (ProbeSet 11751329_s_at) / Fold change (ACY-1035/veh), FGFR1OP (ProbeSet 11751329_s_at) / Fold change (Aza/veh), VPS36 (ProbeSet 11739960_a_at) / Fold change (ACY-1035/veh), VPS36 (ProbeSet 11739960_a_at) / RFU SYPL1 (11715823_x_at) / Fold change /veh SYPL1 (11715823_x_at) / RFU IGFBP7 (11715501_s_at) / Fold change /veh IGFBP7 (11715501_s_at) / RFU REEP3 (11722064_at) / Fold change /veh REEP3 (11722064_at) / RFU IGLL1 (11728026_x_at) / Fold change /veh IGLL1 (11728026_x_at): dose or concentration left out as unconfirmed", "conditions": "MV-4-11 cells, 48 hours"}
{"compound": "Nc1ccc(-c2cccs2)cc1NC(=O)c1ccc2c(c1)cc(C1CC1)n2CCN1CCOCC1", "note": "[ACY-1035]", "values": [{"measurement": "Fold change /veh SRD5A1 (11742802_a_at)", "result": 1.16}]}
